The target in experiment [1] is EGFR (Human), P00533 [T790M/L858R].
Experiment [2] has as its target EGFR (human), P00533 [WT].
Experiment [3] addresses EGFR (human) (UniProt P00533). The settings on record: hcc827.

The source of these data is the Kinase Knowledgebase extract (Sharma et al. 2016).

pIC50: −log10 of the molar value. Where “and” joins values, the source holds several entries; their conditions need not be identical. Equal entries are not always repeated. Some results are limits rather than exact numbers.

Sequence of EGFR (human), P00533 [WT] (P00533 whole entry, looked up): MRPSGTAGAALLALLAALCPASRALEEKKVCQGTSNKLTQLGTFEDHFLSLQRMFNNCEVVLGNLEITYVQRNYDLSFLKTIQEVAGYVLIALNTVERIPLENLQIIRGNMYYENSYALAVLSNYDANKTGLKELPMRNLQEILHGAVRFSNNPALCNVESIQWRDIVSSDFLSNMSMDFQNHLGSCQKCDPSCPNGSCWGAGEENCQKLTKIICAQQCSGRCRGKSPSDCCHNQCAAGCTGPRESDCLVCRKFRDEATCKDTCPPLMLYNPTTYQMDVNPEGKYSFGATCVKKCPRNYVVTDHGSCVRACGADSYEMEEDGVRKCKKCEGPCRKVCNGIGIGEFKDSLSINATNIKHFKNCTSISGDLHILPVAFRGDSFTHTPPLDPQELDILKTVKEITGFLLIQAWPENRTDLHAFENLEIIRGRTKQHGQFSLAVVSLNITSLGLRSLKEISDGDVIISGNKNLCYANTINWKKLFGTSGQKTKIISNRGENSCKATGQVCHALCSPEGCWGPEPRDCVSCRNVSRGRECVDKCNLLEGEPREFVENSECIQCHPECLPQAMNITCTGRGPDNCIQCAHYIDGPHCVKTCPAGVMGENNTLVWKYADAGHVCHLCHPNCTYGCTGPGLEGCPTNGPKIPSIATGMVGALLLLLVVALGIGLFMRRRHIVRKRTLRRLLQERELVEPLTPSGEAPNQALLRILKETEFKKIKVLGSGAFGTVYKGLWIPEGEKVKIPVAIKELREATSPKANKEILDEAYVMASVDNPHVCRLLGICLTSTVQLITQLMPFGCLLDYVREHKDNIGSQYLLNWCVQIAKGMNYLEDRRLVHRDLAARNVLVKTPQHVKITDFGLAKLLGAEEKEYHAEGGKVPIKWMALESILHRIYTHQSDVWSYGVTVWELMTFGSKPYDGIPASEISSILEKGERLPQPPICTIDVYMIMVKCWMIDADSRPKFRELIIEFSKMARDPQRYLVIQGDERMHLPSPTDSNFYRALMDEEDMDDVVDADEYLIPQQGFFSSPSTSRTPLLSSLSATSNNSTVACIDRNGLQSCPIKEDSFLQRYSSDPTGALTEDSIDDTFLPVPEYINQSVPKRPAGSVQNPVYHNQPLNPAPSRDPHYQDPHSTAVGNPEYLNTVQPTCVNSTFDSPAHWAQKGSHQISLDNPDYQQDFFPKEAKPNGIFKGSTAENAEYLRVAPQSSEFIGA
Sequence of EGFR (Human), P00533 [T790M/L858R] (P00533 whole entry T790M/L858R, looked up): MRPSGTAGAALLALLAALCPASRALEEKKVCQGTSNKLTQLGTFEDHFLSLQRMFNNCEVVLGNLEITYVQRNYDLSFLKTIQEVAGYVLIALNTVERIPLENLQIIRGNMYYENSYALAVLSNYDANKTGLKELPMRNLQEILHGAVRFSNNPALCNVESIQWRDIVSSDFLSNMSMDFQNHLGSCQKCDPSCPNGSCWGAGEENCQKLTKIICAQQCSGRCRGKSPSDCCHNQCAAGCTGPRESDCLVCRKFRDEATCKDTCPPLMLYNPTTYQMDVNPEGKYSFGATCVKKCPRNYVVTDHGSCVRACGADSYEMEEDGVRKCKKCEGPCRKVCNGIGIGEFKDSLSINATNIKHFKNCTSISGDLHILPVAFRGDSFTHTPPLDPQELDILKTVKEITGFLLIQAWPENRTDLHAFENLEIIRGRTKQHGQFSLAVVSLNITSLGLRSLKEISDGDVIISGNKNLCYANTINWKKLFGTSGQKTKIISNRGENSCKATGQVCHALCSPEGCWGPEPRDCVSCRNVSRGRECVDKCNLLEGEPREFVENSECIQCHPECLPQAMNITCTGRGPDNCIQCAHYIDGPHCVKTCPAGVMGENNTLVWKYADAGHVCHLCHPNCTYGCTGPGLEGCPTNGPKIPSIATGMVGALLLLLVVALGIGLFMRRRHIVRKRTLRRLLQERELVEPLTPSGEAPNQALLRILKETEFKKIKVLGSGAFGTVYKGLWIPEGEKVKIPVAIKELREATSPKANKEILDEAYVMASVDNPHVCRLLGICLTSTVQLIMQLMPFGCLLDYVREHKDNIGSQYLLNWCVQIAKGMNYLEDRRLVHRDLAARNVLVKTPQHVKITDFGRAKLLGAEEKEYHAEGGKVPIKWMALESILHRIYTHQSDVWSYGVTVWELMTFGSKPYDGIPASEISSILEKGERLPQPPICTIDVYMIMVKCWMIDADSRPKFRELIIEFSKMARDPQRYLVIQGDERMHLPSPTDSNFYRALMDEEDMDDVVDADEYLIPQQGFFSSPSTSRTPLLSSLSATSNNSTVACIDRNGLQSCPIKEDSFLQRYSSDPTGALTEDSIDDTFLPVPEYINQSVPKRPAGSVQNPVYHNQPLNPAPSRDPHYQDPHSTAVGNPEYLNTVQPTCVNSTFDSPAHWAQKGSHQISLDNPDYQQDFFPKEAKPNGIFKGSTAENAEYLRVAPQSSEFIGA
Sequence of EGFR (human) (P00533 whole entry, looked up): as the sequence (P00533 whole entry, looked up) above

In experiment [1], `CN(C)C/C=C/C(=O)N1CCc2c(sc3ncnc(NCCO)c23)C1` gave a negative-log IC50 (pIC50) of under 5.00.

Take `CCC(=O)N1CCc2c(sc3ncnc(N[C@H](CO)c4ccccc4)c23)C1`: the pIC50 in experiment [1] is under 5.00.

As to `C[C@@H](Nc1ncnc2sc3c(c12)CCCC3)c1ccccc1`, the negative logarithm of the IC50 (pIC50) in experiment [2] is 5.49.

In the case of `OC[C@@H](Nc1ncnc2sc3c(c12)CCNC3)c1ccccc1`, the pIC50 in experiment [1] was under 5.00.

With `CN(C)C/C=C/C(=O)N1CCc2c(sc3ncnc(N[C@H](CO)c4ccccc4)c23)C1`, in experiment [2], the pIC50 was 8.15 and 8.22.

In the case of `C=CC(=O)N1CCc2c(sc3ncnc(N[C@@H](CO)c4ccccc4)c23)C1`, in experiment [1], the pIC50 is under 5.00.

Turning to `OC[C@@H](Nc1ncnc2sc3c(c12)CCCC3)c1ccccc1`, the pIC50 in experiment [1] is under 5.00.

Compound `O=C(/C=C/c1ccccc1)N1CCc2c(sc3ncnc(N[C@H](CO)c4ccccc4)c23)C1` showed a negative-log IC50 (pIC50) in experiment [1] of under 5.00.

Turning to `c1ccc(CNc2ncnc3sc4c(c23)CCCC4)cc1`, the pIC50 in experiment [2] was 5.59; in experiment [3], under 5.00; in experiment [1], under 5.00.

`CN1CCN(C/C=C/C(=O)N2CCc3c(sc4ncnc(N[C@H](CO)c5ccccc5)c34)C2)CC1` gave a pIC50 in experiment [1] of under 5.00.

The compound `CN(C)C/C=C/C(=O)N1CCc2c(sc3ncnc(N[C@@H](CO)c4ccccc4)c23)C1` had a negative-log IC50 (pIC50) in experiment [1] of under 5.00.
